Experiments:
[1] = tested on: OPM2; assay: Soluble BCMA (sBCMA) shedding after GSI (ELISA); type: cell-based, Human; parameters: unit not given here; settings: Table 6 (sBCMA in supernatant, ELISA), 24 hours
[2] = tested on: Raji; assay: Cell surface BCMA expression after GSI, time course and washout, lymphoma cells; type: cell-based
Method: Lymphoma cells (Raji) were seeded in a 6-well plate at 800,000 cells/2 ml/well with GSI diluted at 1 μM in RPMI medium (with 0.1% DMSO). Cells were collected to evaluate cell surface BCMA expression at baseline, and then at 3 hours, 6 hours and 24 hours after addition of the GSI. After 24 hours of incubation with the GSI, cells were washed twice in PBS and re-plated in fresh 6-well plates. […] At the indicated time points, samples were stained with a ZombieNIR Viability dye (Biolegend) for 20 minutes at room temperature at 1 in 500 dilution in PBS, washed with PBS+2% FBS and further stained with anti-BCMA PE-labelled antibody diluted in PBS+2% FBS for 30 minutes at 4° C. Samples were acquired on BD Flow Cytometer and analyzed using FlowJo software. Dead cells were removed from the analysis by gating on ZombieNIR negative population. BCMA mean fluorescence intensity (MFI) was plotted as a histogram.

CCC[C@H](N[C@H]1CCc2cc(F)cc(F)c2C1)C(=O)Nc1cn(C(C)(C)CNCC(C)(C)C)cn1 [GSI, nirogacestat]
BCMA (-PE) MFI ([1]; OPM2, GSI 0.01 nM): 6043.3 | BCMA (-PE) MFI ([1]; OPM2, GSI 0.1 nM): 8872.2 | BCMA (-PE) MFI ([1]; OPM2, GSI 1 nM): 8014 | BCMA (-PE) MFI ([1]; OPM2, GSI 2.5 nM): 7726.5 | BCMA (-PE) MFI ([1]; OPM2, GSI 5 nM): 7617.3 | BCMA (-PE) MFI ([1]; OPM2, GSI 10 nM): 6488.6 | BCMA (-PE) MFI ([1]; OPM2, GSI 25 nM): 4487.9 | BCMA (-PE) MFI ([1]; OPM2, GSI 50 nM): 3055.7 | BCMA (-PE) MFI ([1]; OPM2, GSI 100 nM): 1238.6 | BCMA (-PE) MFI ([1]; OPM2, GSI 500 nM): 23.8 | BCMA (-PE) MFI ([1]; OPM2, GSI 1000 nM): 0 | BCMA (-PE) MFI ([2]; GSI 1 μM for 24 h, 3 h post wash): 1619 | BCMA (-PE) MFI ([2]; GSI 1 μM for 24 h, 5 h post wash): 1822 | BCMA (-PE) MFI ([2]; GSI 1 μM for 24 h, 24 h post wash): 795 | BCMA (-PE) MFI ([2]; GSI 1 μM, 3 h after GSI): 699 | BCMA (-PE) MFI ([2]; GSI 1 μM, 6 h after GSI): 735 | BCMA (-PE) MFI ([2]; GSI 1 μM, 24 h after GSI): 1506

Reference: patent publication US20230192878A1, “METHODS, THERAPIES AND USES FOR TREATING CANCER” (PFIZER INC., priority 2020, published 2023)
